Measured values reported in patent US20080171716A1, “NUCLEIC ACID MODULATION OF TOLL-LIKE RECEPTOR-MEDIATED IMMUNE STIMULATION” (Protiva Biotherapeutics, Inc., priority 2006, published 2008).
“Also recorded” adds a separate entry of the source. m = 2'-O-methyl; r = 2'-OH (RNA)

Experiments:
[1] = tested on: TLR7/8; assay: Cytokine induction in human PBMCs by immunostimulatory RNA, alone or co-formulated with modified ssRNA in the same SNALP/lipid particle; assay type: cell-based; conditions: for immunostimulatory effects (IFN-α induction) of ApoB antisense ssRNA when co-formulated / immunostimulatory effects (IFN-α induction) of ApoB siRNA duplex when co-formulated: co-formulated in the same SNALP; for immunostimulatory effects (IFN-α induction) of ApoB antisense ssRNA when co-formulated: 1:1 molar ratio; for immunostimulatory effects (IFN-α induction) of ApoB siRNA duplex when co-formulated: equimolar
Description: (§1) All RNA molecules used in this study were heated at 90° C. for 3 min. and then placed at 37° C. for 60 min. Non-denaturing PAGE analysis on a 20% polyacrylamide gel was performed to confirm that ssRNA molecules were intact and that no duplexes had formed upon heating. The RNA molecules were encapsulated in a SNALP formulation comprising PEG-cDMA:DLinDMA:cholesterol:DSPC in a 2:40:48:10 mol % ratio (2:40 SNALP), prepared using a syringe press process.
(§2) Fresh human peripheral blood mononuclear cells (PBMCs) were isolated and seeded at about 3×10^5 cells/well in a total volume of 180 μl. Next, 20 μl of the appropriate SNALP diluted in PBS or 10 μl of naked TLR agonist were added to the PBMCs. For time course experiments, PBMCs were pretreated with UmodS ssRNA or a control and the appropriate naked TLR agonist was added at 0, 0.5, or 2 hours after pretreatment. When the SNALP and naked TLR agonist were added separately, the SNALP was added first followed by the naked TLR agonist. At t=24 hr., the cell supernatant was harvested and IFN-α and/or IL-6 levels were determined using ELISA.
The ssRNA molecules used in this study were heated at 90° C. for 3 min. and then placed at 37° C. for 60 min to disrupt any potential secondary structure. Non-denaturing PAGE analysis on a 20% polyacrylamide gel was performed to confirm that ssRNA molecules were intact and that no duplexes had formed upon heating. siRNA duplexes were prepared by annealing equimolar concentrations of two deprotected and desalted ssRNA oligonucleotides using standard procedures. Formation of annealed siRNA duplexes was confirmed by non-denaturing PAGE analysis on a 20% polyacrylamide gel. The RNA molecules were encapsulated in a 2:40 SNALP formulation prepared using a syringe press process.
Fresh human peripheral blood mononuclear cells (PBMCs) were isolated and seeded at about 3×10^5 cells/well in a total volume of 180 μl. Next, 20 μl of the appropriate SNALP diluted in PBS were added to the PBMCs. At t=24 hr., the cell supernatant was harvested and IFN-α and/or IL-6 levels were determined using an enzyme-linked immunosorbent assay (ELISA). For example, IFN-α and IL-6 levels can be measured using a sandwich ELISA kit available from PBL Biomedical (Piscataway, N.J.) and eBioscience (San Diego, Calif.), respectively.
(§3) Lipid Encapsulation of RNA and ODN. RNA or ODN were encapsulated in liposomes by a process of spontaneous vesicle formation as described in Judge et al., supra, and Jeffs et al., Pharm. Res., 22:362-372 (2005).
(§4) Cell Isolation and Culture. Human PBMCs were isolated from whole blood of healthy donors by a standard Ficoll-Hypaque density centrifugation. Blood was diluted 1:1 with PBS, layered onto Ficoll-Paque Plus, and centrifuged at 1600 RPM for 30 min. PBMCs were washed in PBS twice followed by resuspension in complete media (RPMI 1640, 10% heat inactivated FBS, 2 mM L-glutamine, and 1% penicillin/streptomycin). PBMCs were plated at 2.5×10^5 cells/well in 96 well plates for cytokine induction assays.
(§5) Loxoribine (InvivoGen; San Diego, Calif.), polyIC (Sigma-Aldrich; St. Louis, Mo.), and formulated nucleic acids were diluted in PBS and added to either human PBMC or Flt3L DC cultures. Cells were incubated 24 h at 37° C. before supernatants were assayed for cytokines by ELISA.
(§6) Cytokine ELISA. All cytokines were quantified using sandwich ELISA kits according to the manufacturer's instructions. These were mouse and human IFN-α (PBL Biomedical; Piscataway, N.J.) and IL-6 (eBioscience; San Diego, Calif.).

[2] = biological target: T1, TLR7 (Homo sapiens, UniProt Q9NYK1); assay: Loxoribine (TLR7 agonist)-induced IFN-α/IL-6 production in human PBMCs; assay type: cell-based; conditions: for reduction of Lox induced IFN-α / reduction of Lox induced IL-6: 300 μM Lox, formulated 2′OMe RNA 1.5 μg/ml (~0.2 μM), 24 h, replicate experiments; for IL-6 levels induced by naked loxoribine / level of IFN-α induced by naked loxoribine: SNALP-encapsulated ssRNA added before naked agonist, supernatant at 24 hr, ELISA
T1 construct: Human PBMCs were isolated from whole blood of healthy donors; endogenous in cells; host or cells: primary human PBMCs from healthy donors
T1 sequence (Q9NYK1 27-1049): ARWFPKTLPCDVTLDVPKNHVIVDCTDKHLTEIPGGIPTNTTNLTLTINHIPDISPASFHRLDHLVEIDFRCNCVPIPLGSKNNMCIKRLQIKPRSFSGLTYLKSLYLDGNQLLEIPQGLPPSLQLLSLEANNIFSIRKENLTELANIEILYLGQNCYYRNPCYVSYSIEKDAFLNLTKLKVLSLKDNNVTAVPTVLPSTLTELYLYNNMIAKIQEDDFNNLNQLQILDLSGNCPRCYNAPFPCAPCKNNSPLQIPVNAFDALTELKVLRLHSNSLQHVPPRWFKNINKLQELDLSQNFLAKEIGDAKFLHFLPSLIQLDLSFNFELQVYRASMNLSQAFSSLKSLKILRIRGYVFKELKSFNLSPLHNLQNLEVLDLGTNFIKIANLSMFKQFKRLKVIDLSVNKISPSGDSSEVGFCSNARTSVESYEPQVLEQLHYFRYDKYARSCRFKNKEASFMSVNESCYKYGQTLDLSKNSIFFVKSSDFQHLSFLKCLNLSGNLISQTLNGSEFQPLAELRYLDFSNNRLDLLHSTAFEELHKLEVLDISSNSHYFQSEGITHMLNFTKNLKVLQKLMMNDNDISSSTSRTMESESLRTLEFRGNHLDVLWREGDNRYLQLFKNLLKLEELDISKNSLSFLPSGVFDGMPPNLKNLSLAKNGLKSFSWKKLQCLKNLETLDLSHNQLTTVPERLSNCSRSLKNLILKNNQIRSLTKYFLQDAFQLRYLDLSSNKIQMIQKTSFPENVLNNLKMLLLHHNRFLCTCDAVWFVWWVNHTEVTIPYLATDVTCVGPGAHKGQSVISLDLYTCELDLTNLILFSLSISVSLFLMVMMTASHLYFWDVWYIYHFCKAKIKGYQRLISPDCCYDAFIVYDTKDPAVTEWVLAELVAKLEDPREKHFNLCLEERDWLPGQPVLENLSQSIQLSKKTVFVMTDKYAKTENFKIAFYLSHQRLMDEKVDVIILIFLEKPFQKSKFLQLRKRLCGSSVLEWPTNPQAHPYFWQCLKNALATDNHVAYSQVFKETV
Description: as §1, §2, §3, §4, §5, §6

[3] = human PBMCs, co-encapsulated in equimolar amounts in the same SNALP, 24 hr
[4] = human PBMCs, 24 h, listed as Luc-mU
[5] = human PBMCs, equimolar amounts in the same SNALP, 24 h

Substance	IFN-α production induced by the RNA alone ([1]; human PBMC cultures, lipid-formulated RNA alone, doses 0.1 to 3 μg/ml)	IFN-α levels induced by TLR7/8 agonist RNA40 [1, 3]	IL-6 levels induced by TLR7/8 agonist RNA40 [1, 3]	immunostimulatory effects (IFN-α induction) of ApoB antisense ssRNA when co-formulated ([1]; human PBMCs, 24 h)	immunostimulatory effects (IFN-α induction) of ApoB antisense ssRNA when co-formulated [1, 4]	immunostimulatory effects (IFN-α induction) of ApoB siRNA duplex when co-formulated ([1]; human PBMCs, 24 h)	immunostimulatory effects (IFN-α induction) of ApoB siRNA duplex when co-formulated [1, 4]	IFN-α levels induced by β-gal antisense ssRNA when co-encapsulated [1, 5]	reduction of Lox induced IFN-α [2]	reduction of Lox induced IL-6 [2]	IL-6 levels induced by naked loxoribine [2]	level of IFN-α induced by naked loxoribine [2]	cytokine production from human PBMCs when co-formulated with immunostimulatory RNA ([1]; human PBMCs, co-formulated with immunostimulatory ssRNA)	IL-6 levels induced by β-gal antisense ssRNA when co-encapsulated [1, 5]	IFN-α levels induced by β-gal antisense ssRNA when co-encapsulated ([1]; human PBMCs, equimolar amounts in the same SNALP, 24 h, listed as (mU)21)
Luc UmodS: Luc sense strand ssRNA with 2′OMe at uridines: GAmUmUAmUGmUCCGGmUmUAmUGmUAUU (sense GAUUAUGUCCGGUUAUGUAUU; sugars from the 5' end rrmmrmrmrrrrmmrmrmrrr, backbone not given here)	do not induce measurable IFN-α production	significantly reduce	significantly reduce	abolished	abrogated	significantly reduced	abrogated	abrogated	55+/−16%	62+/−10%	inhibited	dose-dependently decrease; also recorded: inhibited			
polyUmod21: 2′OMe-uridine homopolymer of 21 nucleotides in length (UUUUUUUUUUUUUUUUUUUUU; all 2'-O-methyl, backbone not given here)								significantly reduced	72+/−5%	80+/−1%	inhibited	inhibited	equally as effective at inhibiting cytokine production	significantly reduced	inhibit
